Measurements reported in the RepoRT retention time repository (doi:10.1016/j.jchromb.2020.122105).

Columns and labels:
Conditions in all cases: stereoisomer not certain
[1] = RP, Waters ACQUITY UPLC BEH C18, 100 × 2.1 mm, 1.7 µm, 0.2 mL/min, estimated dead time 1.1 min; A: water + 0.025% formic acid + 20 mM ammonium acetate + 0.055% ammonium hydroxide, pH 7; B: methanol; gradient (min/%B) 0/5 5/5 25/100 30/100 30.1/5 35/5
[2] = as above; remark: listed apart in the source
[3] = RP, Waters CORTECS T3, 100 × 2.1 mm, 2.7 µm, 0.25 mL/min, estimated dead time 0.88 min; A: water + 0.1% formic acid, pH 3; B: methanol + 0.1% formic acid, pH 3; gradient (min/%B) 0/0 1/0 6/5 30/100 35/100 35.1/0 40/0
[4] = RP, Waters CORTECS T3, 100 × 2.1 mm, 2.7 µm, 0.3 mL/min, estimated dead time 0.73 min; A: water + 0.1% formic acid, pH 3; B: methanol + 0.1% formic acid, pH 3; gradient (min/%B) 0/5 5/5 25/95 25.1/100 35/100 35.1/5 45/5
[5] = RP, Waters CORTECS T3, 100 × 2.1 mm, 2.7 µm, 0.1 mL/min, estimated dead time 2.2 min; A: water + 0.1% formic acid, pH 3; B: methanol + 0.1% formic acid, pH 3; gradient (min/%B) 0/0 1/0 6/5 30/100 35/100 35.1/0 40/0
[6] = RP, Waters ACQUITY UPLC BEH C18, 100 × 2.1 mm, 1.7 µm, 0.1 mL/min, estimated dead time 2.2 min; A: water + 0.045% formic acid + 0.11% ammonium hydroxide, pH 7; B: methanol; gradient (min/%B) 0/5 5/5 25/95 25.1/100 35/100 35.1/5 45/5
[7] = RP, Waters CORTECS T3, 100 × 2.1 mm, 2.7 µm, 0.3 mL/min, estimated dead time 0.73 min; A: water + 0.1% formic acid, pH 3; B: methanol + 0.1% formic acid, pH 3; gradient (min/%B) 0/0 5/0 25/100 30/100 30.1/0 35/0
[8] = RP, Waters CORTECS T3, 100 × 2.1 mm, 2.7 µm, 0.2 mL/min, estimated dead time 1.1 min; A: water + 0.1% formic acid, pH 3; B: methanol + 0.1% formic acid, pH 3; gradient (min/%B) 0/5 5/5 25/95 25.1/100 35/100 35.1/5 45/5
[9] = RP, Waters ACQUITY UPLC BEH C18, 100 × 2.1 mm, 1.7 µm, 0.1 mL/min, estimated dead time 2.2 min; A: water + 0.1% formic acid, pH 3; B: methanol + 0.1% formic acid, pH 3; gradient (min/%B) 0/5 5/5 25/95 25.1/100 35/100 35.1/5 45/5
[10] = RP, Waters CORTECS T3, 100 × 2.1 mm, 2.7 µm, 0.3 mL/min, estimated dead time 0.73 min; A: water + 0.1% formic acid, pH 3; B: methanol + 0.1% formic acid, pH 3; gradient (min/%B) 0/0 1/0 6/5 30/100 35/100 35.1/0 40/0
[11] = HILIC, Waters XBridge BEH Amide, 100 × 2.1 mm, 2.5 µm, 0.5 mL/min, estimated dead time 0.44 min; A: water + 0.1% acetic acid + 10 mM ammonium acetate, pH 4; B: 5% water + 95% acetonitrile + 0.1% acetic acid + 10 mM ammonium acetate, pH 4; gradient (min/%B) 0/95 5/95 20/57 25/57 30/95 40/95
[12] = RP, Thermo Scientific Hypercarb, 150 × 2.1 mm, 5 µm, 0.1 mL/min, estimated dead time 3.3 min; A: water + 0.1% formic acid, pH 3; B: methanol + 0.1% formic acid, pH 3; gradient (min/%B) 0/5 5/5 20/100 35/100 35.1/5 45/5

| LC retention time [1] | LC retention time [2] | LC retention time [3] | LC retention time [4] | LC retention time [5] | LC retention time [6] | LC retention time [7] | LC retention time [8] | LC retention time [9] | LC retention time [10] | LC retention time [11] | LC retention time [12] | SMILES |
| --- | --- | --- | --- | --- | --- | --- | --- | --- | --- | --- | --- | --- |
| 15.8 min | 17.1 min | 18.6 min | 15.9 min | 17.1 min | 20.4 min | 16.1 min | 22.3 min | 20.2 min | 18 min | – | – | N[C@@H](Cc1cc(I)c(Oc2ccc(O)cc2)c(I)c1)C(=O)O [3,5-DIIODO-L-THYRONINE] |
| 5.96 min | 8.26 min | 11.4 min | 9.2 min | 10.7 min | 11.7 min | 10.5 min | 15.8 min | 14.3 min | 10.8 min | 8.25 min | – | O=C(O)c1cc(=O)c2ccccc2[nH]1 [4-HYDROXY-2-QUINOLINECARBOXYLIC ACID] |
| 1.46 min | – | 8.69 min | 5.14 min | 7.4 min | – | 8.6 min | 13 min | – | 8.1 min | – | 21.3 min | CC(C)(CO)C(O)C(=O)NCCC(=O)O [D-PANTOTHENIC ACID] |
| 8.17 min | 9.58 min | 14.9 min | 12.6 min | 13.9 min | 12.5 min | 13.2 min | 19 min | – | 14.3 min | – | 30 min | CC1NC(=O)NC1CCCCCC(=O)O (stereo unspecified) [DETHIOBIOTIN] |
| 15.4 min | 16.8 min | 14.2 min | 12 min | 13.4 min | 20.6 min | 12.8 min | 18.8 min | 17.3 min | 13.6 min | 0.72 min | – | CC(C)=CCNc1ncnc2nc[nH]c12 [N6-(DELTA2-ISOPENTENYL)-ADENINE] |
| 9.66 min | – | 14.8 min | 12.5 min | 13.9 min | 14.1 min | 13.2 min | 19.2 min | – | 14.2 min | 8.11 min | – | CC(=O)N[C@H](Cc1c[nH]c2ccccc12)C(=O)O [N-ACETYL-D-TRYPTOPHAN] |
| 1.41 min | – | – | 1.68 min | – | – | 3.11 min | 8.07 min | 2.72 min | 3.11 min | 4.98 min | – | Nc1nc2nccnc2c(=O)[nH]1 [PTERIN] |
| 11.9 min | 12.7 min | 14 min | 11.9 min | 13.1 min | 15.7 min | 12.5 min | 17.7 min | 15.7 min | 13.5 min | – | – | Cc1cc2nc3c(=O)[nH]c(=O)nc-3n(CC(O)C(O)C(O)CO)c2cc1C (stereo unspecified) [RIBOFLAVIN] |
| 1.36 min | – | 2.63 min | 1.51 min | – | – | 2.39 min | – | 2.72 min | 2.39 min | 6.47 min | – | O=c1[nH]c(=O)c2[nH]cnc2[nH]1 [XANTHINE] |
| 1.36 min | – | 11.1 min | 8.97 min | 10.4 min | – | 10.3 min | 15.5 min | 13.8 min | 10.5 min | – | – | O=C(O)c1cc(=O)c2cccc(O)c2[nH]1 [XANTHURENIC ACID] |
